# Experimental data from article PMC9851200, “Multiparameter phenotypic screening for endogenous TFEB and TFE3 translocation identifies novel chemical series modulating lysosome function” (Autophagy, 2022).
# Read-outs that look alike come from different tables or passages of the source.
# Legend:
# Experiment in all cases: biochemical
# Assay type in all cases: binding
# [1] = molecular target: T1, cellular kinases of SH-SY5Y cells (Homo sapiens, UniProt Q13418); conditions: 2µM, SH-SY5Y cells
# T1 construct: endogenous in cells; host or cells: SH-SY5Y
# T1 sequence (Q13418 whole entry): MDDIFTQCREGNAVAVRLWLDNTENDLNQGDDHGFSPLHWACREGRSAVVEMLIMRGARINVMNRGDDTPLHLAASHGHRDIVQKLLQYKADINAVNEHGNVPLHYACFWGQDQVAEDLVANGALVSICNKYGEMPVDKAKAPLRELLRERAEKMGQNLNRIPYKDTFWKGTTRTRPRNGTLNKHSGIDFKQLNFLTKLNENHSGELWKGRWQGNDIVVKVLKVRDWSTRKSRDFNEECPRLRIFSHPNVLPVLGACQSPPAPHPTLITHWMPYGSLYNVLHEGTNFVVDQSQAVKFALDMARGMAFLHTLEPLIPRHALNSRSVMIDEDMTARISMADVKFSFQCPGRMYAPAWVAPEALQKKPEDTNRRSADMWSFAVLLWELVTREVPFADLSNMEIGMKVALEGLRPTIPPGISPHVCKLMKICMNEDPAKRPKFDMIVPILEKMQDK
# Source text: (§1) As KINOMEscan is an in vitro assay, and as different cell types have variable kinase expression profiles we sought to determine the kinase binding profile in our SH-SY5Y TFEB-relocalization cell model. […] Bound kinases were pulled down and analyzed by mass spectrometry to determine the in situ kinase binding profile for each compound.
# [2] = molecular target: cellular kinases of SH-SY5Y cells (Homo sapiens, UniProt P00533); conditions: 2µM, SH-SY5Y cells, read-out: KiNativ in-cell binding, % Inhibition, EGFR, EGFR-L858R
# cellular kinases of SH-SY5Y cells (Homo sapiens, UniProt P00533), sequence (P00533 25-1210): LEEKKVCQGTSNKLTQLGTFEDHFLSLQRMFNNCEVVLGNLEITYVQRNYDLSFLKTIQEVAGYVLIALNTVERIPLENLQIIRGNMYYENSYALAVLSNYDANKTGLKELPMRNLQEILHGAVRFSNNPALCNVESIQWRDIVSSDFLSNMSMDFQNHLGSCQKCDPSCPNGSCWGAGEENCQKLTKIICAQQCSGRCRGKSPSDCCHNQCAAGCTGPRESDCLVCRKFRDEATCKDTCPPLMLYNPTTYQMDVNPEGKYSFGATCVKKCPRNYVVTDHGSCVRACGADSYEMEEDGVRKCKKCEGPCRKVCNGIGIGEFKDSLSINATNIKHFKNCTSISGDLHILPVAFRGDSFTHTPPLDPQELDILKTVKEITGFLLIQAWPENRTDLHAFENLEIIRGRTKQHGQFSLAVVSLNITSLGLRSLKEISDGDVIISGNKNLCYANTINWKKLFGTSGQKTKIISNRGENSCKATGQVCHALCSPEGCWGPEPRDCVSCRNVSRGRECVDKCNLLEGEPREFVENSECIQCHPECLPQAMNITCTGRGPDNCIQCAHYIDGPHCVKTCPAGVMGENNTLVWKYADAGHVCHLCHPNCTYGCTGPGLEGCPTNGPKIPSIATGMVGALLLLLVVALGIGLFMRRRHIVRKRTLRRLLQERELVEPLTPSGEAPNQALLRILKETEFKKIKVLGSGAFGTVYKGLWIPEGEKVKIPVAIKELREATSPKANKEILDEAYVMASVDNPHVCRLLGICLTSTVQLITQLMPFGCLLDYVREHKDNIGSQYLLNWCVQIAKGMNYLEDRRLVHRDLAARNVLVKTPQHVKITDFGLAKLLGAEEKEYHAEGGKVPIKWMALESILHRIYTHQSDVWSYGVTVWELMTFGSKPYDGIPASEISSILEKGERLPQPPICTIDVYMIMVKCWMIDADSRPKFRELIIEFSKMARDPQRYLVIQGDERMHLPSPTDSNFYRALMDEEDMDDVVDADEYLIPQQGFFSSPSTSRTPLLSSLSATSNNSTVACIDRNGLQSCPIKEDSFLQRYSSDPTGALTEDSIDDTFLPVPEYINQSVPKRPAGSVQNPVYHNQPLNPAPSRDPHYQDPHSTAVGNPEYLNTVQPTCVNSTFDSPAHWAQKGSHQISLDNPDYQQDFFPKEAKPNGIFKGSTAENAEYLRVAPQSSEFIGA
# Source text: as §1
# [3] = molecular target: T2, cellular kinases of SH-SY5Y cells (Homo sapiens, UniProt Q52WX2); conditions: 2µM; SH-SY5Y cells; Labeling Site Lys2; DIKPENVLLFDR; read-out: KiNativ in-cell binding, % Inhibition, SBK1/SBK
# T2 construct: endogenous in cells; host or cells: SH-SY5Y
# Source text: as §1
# [4] = molecular target: T3, cellular kinases of SH-SY5Y cells (Homo sapiens, UniProt O75063); conditions: 2µM; SH-SY5Y cells; Labeling Site ATP; ETEPACADGDIMEGSVTLWLPDVWPLQKHR; read-out: KiNativ in-cell binding, % Inhibition, FAM20B
# T3 construct: endogenous in cells; host or cells: SH-SY5Y
# T3 sequence (O75063 whole entry): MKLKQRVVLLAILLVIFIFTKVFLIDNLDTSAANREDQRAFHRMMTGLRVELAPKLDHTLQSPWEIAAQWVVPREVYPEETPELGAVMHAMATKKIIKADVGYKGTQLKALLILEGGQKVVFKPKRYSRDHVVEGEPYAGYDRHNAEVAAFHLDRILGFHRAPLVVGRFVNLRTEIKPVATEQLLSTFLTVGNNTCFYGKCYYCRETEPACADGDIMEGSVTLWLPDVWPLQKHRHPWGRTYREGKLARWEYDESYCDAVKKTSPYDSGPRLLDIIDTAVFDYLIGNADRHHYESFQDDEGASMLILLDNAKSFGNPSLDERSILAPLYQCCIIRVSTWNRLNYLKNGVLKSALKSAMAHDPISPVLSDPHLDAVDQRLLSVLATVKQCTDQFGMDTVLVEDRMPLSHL
# Source text: as §1
# [5] = molecular target: cellular kinases of SH-SY5Y cells (Homo sapiens, UniProt Q16566); conditions: 2µM, SH-SY5Y cells
# cellular kinases of SH-SY5Y cells (Homo sapiens, UniProt Q16566), sequence (Q16566 whole entry): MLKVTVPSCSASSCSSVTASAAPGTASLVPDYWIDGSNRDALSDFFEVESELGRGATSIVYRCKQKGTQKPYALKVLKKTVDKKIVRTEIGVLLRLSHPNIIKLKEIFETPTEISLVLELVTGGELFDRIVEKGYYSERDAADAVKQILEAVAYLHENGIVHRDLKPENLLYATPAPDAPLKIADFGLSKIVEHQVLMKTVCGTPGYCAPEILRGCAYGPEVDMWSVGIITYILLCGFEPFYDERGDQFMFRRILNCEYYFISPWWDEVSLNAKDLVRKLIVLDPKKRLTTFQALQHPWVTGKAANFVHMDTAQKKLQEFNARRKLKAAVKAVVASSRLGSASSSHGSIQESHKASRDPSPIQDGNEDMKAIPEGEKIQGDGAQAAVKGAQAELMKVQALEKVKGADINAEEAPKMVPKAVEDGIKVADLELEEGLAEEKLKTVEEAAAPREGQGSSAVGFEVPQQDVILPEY
# Source text: as §1
# [6] = molecular target: cellular kinases of SH-SY5Y cells (Homo sapiens, UniProt Q9HCP0); conditions: 2µM; SH-SY5Y cells; Labeling Site Lys2; DVKPENFLIGR; read-out: KiNativ in-cell binding, % Inhibition, CK1g1
# Source text: as §1
# [7] = molecular target: T4, cellular kinases of SH-SY5Y cells (Homo sapiens, UniProt Q07912); conditions: 2µM, SH-SY5Y cells, read-out: KiNativ in-cell binding, % Inhibition, TNK2/ACK
# T4 construct: endogenous in cells; host or cells: SH-SY5Y
# T4 sequence (Q07912 whole entry): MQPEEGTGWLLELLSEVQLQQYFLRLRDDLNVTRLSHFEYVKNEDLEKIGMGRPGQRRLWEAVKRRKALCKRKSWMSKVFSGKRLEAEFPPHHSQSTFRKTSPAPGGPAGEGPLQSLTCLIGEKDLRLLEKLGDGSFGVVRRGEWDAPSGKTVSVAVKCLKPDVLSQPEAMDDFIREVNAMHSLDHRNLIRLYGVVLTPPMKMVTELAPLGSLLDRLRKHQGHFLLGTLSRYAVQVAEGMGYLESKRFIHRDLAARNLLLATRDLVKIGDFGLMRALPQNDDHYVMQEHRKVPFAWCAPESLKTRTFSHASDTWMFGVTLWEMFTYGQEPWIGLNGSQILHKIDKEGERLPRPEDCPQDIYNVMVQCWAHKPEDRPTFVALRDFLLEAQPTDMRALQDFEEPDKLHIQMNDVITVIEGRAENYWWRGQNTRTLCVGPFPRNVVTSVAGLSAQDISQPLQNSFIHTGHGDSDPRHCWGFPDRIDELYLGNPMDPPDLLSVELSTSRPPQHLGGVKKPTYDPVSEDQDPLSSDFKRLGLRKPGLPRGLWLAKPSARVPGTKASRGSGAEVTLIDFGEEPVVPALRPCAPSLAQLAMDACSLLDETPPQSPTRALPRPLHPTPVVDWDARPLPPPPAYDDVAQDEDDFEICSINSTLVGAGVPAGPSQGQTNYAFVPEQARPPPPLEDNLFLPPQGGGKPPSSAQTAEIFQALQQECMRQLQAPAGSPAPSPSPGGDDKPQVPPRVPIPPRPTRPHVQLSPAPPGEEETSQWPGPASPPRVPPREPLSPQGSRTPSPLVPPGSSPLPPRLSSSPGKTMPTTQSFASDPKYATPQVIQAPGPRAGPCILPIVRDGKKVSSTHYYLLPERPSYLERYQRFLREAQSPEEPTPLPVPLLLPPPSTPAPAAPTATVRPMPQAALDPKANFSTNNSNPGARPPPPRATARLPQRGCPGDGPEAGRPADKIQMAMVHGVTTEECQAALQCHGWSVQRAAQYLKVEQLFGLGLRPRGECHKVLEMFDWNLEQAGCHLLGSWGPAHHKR
# Source text: as §1
# [8] = molecular target: cellular kinases of SH-SY5Y cells (Homo sapiens, UniProt Q13555); conditions: 2µM; SH-SY5Y cells; Labeling Site Lys1; TSTQEYAAKIINTK; read-out: KiNativ in-cell binding, % Inhibition, CaMK2g
# Source text: as §1
# [9] = molecular target: cellular kinases of SH-SY5Y cells (Homo sapiens, UniProt P07332); conditions: 2µM; SH-SY5Y cells; Labeling Site Lys1; LRADNTLVAVKSCR; read-out: KiNativ in-cell binding, % Inhibition, FES
# Source text: as §1
# [10] = molecular target: cellular kinases of SH-SY5Y cells (Homo sapiens, UniProt P68400); conditions: 2µM; SH-SY5Y cells; labeling site Protein Kinase Domain; peptide GGPNIITLADIVKDPVSR
# Source text: as §1
# [11] = molecular target: T5, cellular kinases of SH-SY5Y cells (Homo sapiens, UniProt O14733); conditions: 2µM; SH-SY5Y cells; labeling site Lys2; peptide DVKPSNILLDER
# T5 construct: endogenous in cells; host or cells: SH-SY5Y
# Source text: as §1
# [12] = molecular target: T6, cellular kinases of SH-SY5Y cells (Homo sapiens, UniProt Q6PHR2); conditions: 2µM; SH-SY5Y cells; labeling site Lys1; peptide EVVAIKCVAK
# T6 construct: endogenous in cells; host or cells: SH-SY5Y
# T6 sequence (Q6PHR2 whole entry): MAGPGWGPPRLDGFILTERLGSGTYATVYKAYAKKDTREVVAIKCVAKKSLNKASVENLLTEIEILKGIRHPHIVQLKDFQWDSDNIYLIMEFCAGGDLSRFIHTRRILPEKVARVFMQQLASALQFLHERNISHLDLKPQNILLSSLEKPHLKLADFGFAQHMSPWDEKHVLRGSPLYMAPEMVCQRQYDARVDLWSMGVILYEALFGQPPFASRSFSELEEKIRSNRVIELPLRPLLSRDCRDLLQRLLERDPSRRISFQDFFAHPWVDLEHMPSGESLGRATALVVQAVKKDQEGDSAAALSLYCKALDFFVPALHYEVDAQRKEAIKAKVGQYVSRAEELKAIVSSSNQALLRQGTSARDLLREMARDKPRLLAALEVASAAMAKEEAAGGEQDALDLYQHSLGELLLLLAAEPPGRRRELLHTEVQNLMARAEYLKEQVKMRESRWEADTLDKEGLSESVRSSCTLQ
# Source text: as §1
# [13] = molecular target: cellular kinases of SH-SY5Y cells (Homo sapiens, UniProt Q96GD4); conditions: 2µM; SH-SY5Y cells; Labeling Site Lys1; SHFIVALKVLFK; read-out: KiNativ in-cell binding, % Inhibition, AURKB/AurB
# Source text: as §1
# [14] = molecular target: T7, cellular kinases of SH-SY5Y cells (Homo sapiens, UniProt Q14164); conditions: 2µM; SH-SY5Y cells; Labeling Site Lys1; SGELVAVKVFNTTSYLRPR; read-out: KiNativ in-cell binding, % Inhibition, IKBKE/IKKe
# T7 construct: endogenous in cells; host or cells: SH-SY5Y
# T7 sequence (Q14164 whole entry): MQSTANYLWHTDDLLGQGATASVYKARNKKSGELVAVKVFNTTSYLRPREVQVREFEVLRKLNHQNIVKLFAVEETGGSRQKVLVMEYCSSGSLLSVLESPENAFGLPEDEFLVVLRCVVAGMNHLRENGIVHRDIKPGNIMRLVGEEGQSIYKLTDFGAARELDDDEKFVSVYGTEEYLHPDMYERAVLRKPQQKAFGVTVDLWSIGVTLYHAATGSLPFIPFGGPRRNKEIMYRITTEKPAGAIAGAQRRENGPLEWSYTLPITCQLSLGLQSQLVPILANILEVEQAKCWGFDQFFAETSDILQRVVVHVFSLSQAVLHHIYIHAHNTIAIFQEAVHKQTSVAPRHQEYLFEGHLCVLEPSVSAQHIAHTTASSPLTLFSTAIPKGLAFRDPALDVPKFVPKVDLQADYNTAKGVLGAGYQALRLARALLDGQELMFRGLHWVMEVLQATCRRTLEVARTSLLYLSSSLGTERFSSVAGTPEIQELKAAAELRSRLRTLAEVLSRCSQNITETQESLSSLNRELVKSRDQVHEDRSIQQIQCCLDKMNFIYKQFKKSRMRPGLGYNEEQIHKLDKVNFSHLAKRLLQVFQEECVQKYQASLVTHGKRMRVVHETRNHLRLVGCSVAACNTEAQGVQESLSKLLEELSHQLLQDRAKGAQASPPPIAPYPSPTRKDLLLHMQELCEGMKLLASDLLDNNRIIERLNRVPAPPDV
# Source text: as §1
# [15] = molecular target: T8, cellular kinases of SH-SY5Y cells (Homo sapiens, UniProt P52564); conditions: 2µM, SH-SY5Y cells; for inhibition at 2 µM: read-out: KiNativ in-cell binding, % Inhibition, MAP2K6
# T8 sequence (P52564 1-334): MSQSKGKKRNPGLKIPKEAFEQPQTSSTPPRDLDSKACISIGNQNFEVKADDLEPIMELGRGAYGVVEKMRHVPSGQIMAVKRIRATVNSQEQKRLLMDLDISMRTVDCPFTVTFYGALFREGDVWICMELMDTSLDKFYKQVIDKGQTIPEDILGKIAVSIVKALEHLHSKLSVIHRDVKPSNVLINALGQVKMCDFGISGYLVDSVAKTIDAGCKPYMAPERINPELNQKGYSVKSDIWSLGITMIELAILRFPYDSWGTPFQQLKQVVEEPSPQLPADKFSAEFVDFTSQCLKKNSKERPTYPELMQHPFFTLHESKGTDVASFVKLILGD
# Source text: as §1
# [16] = molecular target: cellular kinases of SH-SY5Y cells (Homo sapiens, UniProt O75716); conditions: 2µM; SH-SY5Y cells; Labeling Site Lys2; DLKPTNILLGDEGQPVLMDLGSMNQACIHVEGSR; read-out: KiNativ in-cell binding, % Inhibition, STK16
# cellular kinases of SH-SY5Y cells (Homo sapiens, UniProt O75716), sequence (O75716 whole entry): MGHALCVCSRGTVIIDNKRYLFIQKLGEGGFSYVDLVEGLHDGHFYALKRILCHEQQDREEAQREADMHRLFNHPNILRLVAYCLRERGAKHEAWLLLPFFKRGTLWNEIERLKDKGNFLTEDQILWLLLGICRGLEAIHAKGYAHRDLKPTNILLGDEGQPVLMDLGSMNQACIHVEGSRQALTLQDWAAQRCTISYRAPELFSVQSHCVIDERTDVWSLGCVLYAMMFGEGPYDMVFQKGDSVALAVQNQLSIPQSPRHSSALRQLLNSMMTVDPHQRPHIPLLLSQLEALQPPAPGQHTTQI
# Source text: as §1
# [17] = molecular target: T9, cellular kinases of SH-SY5Y cells (Homo sapiens, UniProt Q96PY6); conditions: 2µM; SH-SY5Y cells; Labeling Site Lys2; DIKSQNIFLTK; read-out: KiNativ in-cell binding, % Inhibition, NEK1
# T9 construct: endogenous in cells; host or cells: SH-SY5Y
# Source text: as §1
# [18] = molecular target: cellular kinases of SH-SY5Y cells (Homo sapiens, UniProt Q15349); conditions: 2µM; SH-SY5Y cells; labeling site Lys2; peptide DLKPENILLDEEGHIKITDFGLSK
# Source text: as §1
smiles,measurement,setting,value
Cc1cccc(-c2nc(Nc3ccc4ncsc4c3)c3ccccc3n2)n1 [NK140],inhibition at 2 µM,"[1]; Labeling Site Protein Kinase Domain, ISMADVKFSFQCPGR, read-out: KiNativ in-cell binding, % Inhibition, ILK",-31.8%
same,"KiNativ in-cell binding, ILK","[1]; labeling site Lys1, peptide WQGNDIVVKVLK",-23.6
same,inhibition at 2 µM,"[2]; Labeling Site Activation Loop, LLGAEEKEYHAEGGKVPIK",33.5%
same,inhibition at 2 µM,"[2]; Labeling Site Lys1, IPVAIKELR",14.4%
same,inhibition at 2 µM,[3],3.5%
same,inhibition at 2 µM,[4],-39.2%
same,"KiNativ in-cell binding, CaMK4","[5]; labeling site Lys1, peptide GTQKPYALKVLK",-10.9
same,"KiNativ in-cell binding, CaMK4","[5]; labeling site Lys2, peptide DLKPENLLYATPAPDAPLK",-28.9
same,inhibition at 2 µM,[6],-28.2%
same,inhibition at 2 µM,"[7]; Labeling Site Activation Loop, KVPFAWCAPESLK",-3.4%
same,inhibition at 2 µM,"[7]; Labeling Site Lys1, TVSVAVKCLKPDVLSQPEAMDDFIR",12.9%
same,inhibition at 2 µM,[8],30.4%
same,inhibition at 2 µM,[9],17.1%
same,"KiNativ in-cell binding, CSNK2A1",[10],31.0
same,"KiNativ in-cell binding, MAP2K7",[11],-84.9
same,"KiNativ in-cell binding, ULK3",[12],-25.0
same,inhibition at 2 µM,[13],27.7%
same,inhibition at 2 µM,[14],34.5%
same,inhibition at 2 µM,"[15]; Labeling Site Activation Loop, MCDFGISGYLVDSVAKTIDAGCKPYMAPER",-15.9%
same,inhibition at 2 µM,"[15]; Labeling Site Lys1, HVPSGQIMAVKR",15.4%
same,"KiNativ in-cell binding, MAP2K6","[15]; labeling site Lys2, peptide DVKPSNVLINALGQVK",17.8
same,inhibition at 2 µM,[16],-42.2%
same,inhibition at 2 µM,[17],-13%
same,"KiNativ in-cell binding, RSK3 domain1",[18],-68.0
